Results as given in PMC11647725, “Discovery of 4-(5-Membered)Heteroarylether-6-methylpicolinamide Negative Allosteric Modulators of Metabotropic Glutamate Receptor Subtype 5” (ACS Medicinal Chemistry Letters, 2024).

Key:
human mGlu3 = molecular target: T1, human mGlu3 (Homo sapiens, UniProt Q14832); assay: mGlu selectivity, thallium flux GIRK assay; format: cell-based
T1 construct: expressed in transfected cells
Method: (§1) the presence of 5% CO2, the dye solutions were removed and replaced with assay buffer using a microplate washer, leaving 20 μL of assay buffer in the cell plate. The compound, agonist, and cell plates were placed inside the Functional Drug Screening System (FDSS 7000 or uCell, Hamamatsu, Japan) to measure the calcium flux. Assays were run at 37 °C. A triple add protocol was used to measure Ca kinetics. Briefly, after establishment of a fluorescence baseline for 2 seconds (excitation, 480 nm; emission, 530 nm), 20 µL of test compound was added to the cells and the response was measured for 140 seconds. This was followed by the addition of 10 µL (5X) of an EC20 concentration of Glu agonist, and the response of the cells was measured for 125 seconds. A third addition occurred by adding 12 uL (5X) of an EC80 concentration of Glu agonist and the response of the cells was measured for 90 seconds. […] Calcium fluorescence was recorded as fold over basal fluorescence and raw data were normalized to the maximal response to Glu agonist (ECMax). Compound-evoked decreases in calcium response in the presence of Glu EC80 agonist were determined as inhibition activity, and potency (IC50) and maximum inhibition responses (% GluMin) of compounds were determined using a four-parameter logistical equation using GraphPad Prism (La Jolla, CA) or the Dotmatics software platform (Woburn, MA) : […]
(§2) The mGlu subtype selectivity of compounds was determined using calcium mobilization or thallium flux GIRK (G protein-regulated inwardly rectifying K channel) assays using the stable cell lines expressing the respective mGlu receptors. […]
(§3) at RT using DL-AP4 for the agonist. mGlu8 cells were incubated with dye solution for 50 min at 37 °C in the presence of […] and FDSS assays were run at RT. To measure activity at mGlu2 and mGlu3, HEK293-GIRK cells stably expressing human mGlu2 and mGlu3 were assessed using thallium flux assay through GIRK channels as previously described in detail.3 […]

human mGlu2 = molecular target: T2, human mGlu2 (Homo sapiens, UniProt Q14416); assay: mGlu selectivity, thallium flux GIRK assay; format: cell-based
T2 construct: expressed in transfected cells
T2 sequence (Q14416 19-872): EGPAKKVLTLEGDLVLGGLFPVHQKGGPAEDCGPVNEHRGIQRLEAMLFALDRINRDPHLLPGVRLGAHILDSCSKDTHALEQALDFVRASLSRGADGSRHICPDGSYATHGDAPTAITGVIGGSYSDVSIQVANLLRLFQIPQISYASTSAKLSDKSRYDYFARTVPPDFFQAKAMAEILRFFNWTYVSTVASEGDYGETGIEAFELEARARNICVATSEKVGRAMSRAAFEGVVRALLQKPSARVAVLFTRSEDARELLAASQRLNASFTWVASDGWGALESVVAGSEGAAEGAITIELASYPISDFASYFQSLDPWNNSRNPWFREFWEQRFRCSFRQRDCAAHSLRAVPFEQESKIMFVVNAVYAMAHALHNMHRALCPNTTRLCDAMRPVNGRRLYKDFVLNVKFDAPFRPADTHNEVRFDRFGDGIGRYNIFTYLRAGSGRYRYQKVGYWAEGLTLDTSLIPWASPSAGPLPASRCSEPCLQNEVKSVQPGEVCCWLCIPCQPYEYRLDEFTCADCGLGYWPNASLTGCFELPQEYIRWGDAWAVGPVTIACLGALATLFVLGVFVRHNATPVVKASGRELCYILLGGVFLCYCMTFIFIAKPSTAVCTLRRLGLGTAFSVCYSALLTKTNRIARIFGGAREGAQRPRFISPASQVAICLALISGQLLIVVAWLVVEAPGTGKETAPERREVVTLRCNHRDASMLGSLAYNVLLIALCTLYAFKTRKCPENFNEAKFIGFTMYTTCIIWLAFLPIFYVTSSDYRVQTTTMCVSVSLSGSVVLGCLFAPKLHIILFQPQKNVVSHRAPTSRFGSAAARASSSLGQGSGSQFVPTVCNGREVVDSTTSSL
Method: as §1, §2, §3

Sodium Channel, Site 2 = assay: Lead Profiling Screen, Eurofins Panlabs; format: binding; details: Site 2, rat
[1] = Hepatocyte metabolism study; format: in vitro ADME; details: dog hepatocytes, more so than any other species tested
From the text: (§4) Nonetheless, as a non-aryl/heterobiaryl acetylene mGlu5 NAM with an encouraging in vivo rodent PK profile, we wished to further assess VU6043653 as a novel chemotype. Therefore, we compared metabolites in multiple species to better understand species differences in clearance and metabolism. […] Consistent with the high plasma clearance observed in dogs, high turnover was observed more so in dog hepatocytes than any other species tested (see the Supporting Information for additional details and results). To further evaluate our novel chemotype, the off-target and safety/toxicity profiles for this compound were further investigated.
Table S3. Tentatively Identified Metabolites of VU6043653 in Rat, Dog, Monkey, and Human Hepatocytes (10 μM incubation for 0 and 4 hours). […]
metabolite observed with rat, dog, monkey, and human hepatocytes was M1. Overall, the major pathways for VU6043653 appear to be oxidation, demethylation, and glucuronidation.
(1 picture or pasted object on this page, not shown here)

Adenosine A2A = Adenosine A2A (Homo sapiens, UniProt P29274); assay: Lead Profiling Screen, Eurofins Panlabs; format: binding; details: hum, read-out: % inh at 10 μM
Sequence of Adenosine A2A (P29274 whole entry): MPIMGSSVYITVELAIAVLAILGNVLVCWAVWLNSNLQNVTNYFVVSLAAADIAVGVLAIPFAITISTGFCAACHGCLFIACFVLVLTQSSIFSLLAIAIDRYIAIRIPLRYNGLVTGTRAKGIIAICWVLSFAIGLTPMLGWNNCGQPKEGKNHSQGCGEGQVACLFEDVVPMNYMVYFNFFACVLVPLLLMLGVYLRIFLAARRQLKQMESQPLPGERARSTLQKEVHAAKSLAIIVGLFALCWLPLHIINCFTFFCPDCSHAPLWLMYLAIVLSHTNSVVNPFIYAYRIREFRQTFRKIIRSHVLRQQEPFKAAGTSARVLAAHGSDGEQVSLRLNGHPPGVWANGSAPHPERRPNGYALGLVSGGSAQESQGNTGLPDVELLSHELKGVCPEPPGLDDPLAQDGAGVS
From the text: as §4
(§5) Table S2. Lead Profiling Screen – Eurofins Panlabs for VU6043653.

Adrenergic β2 = Adrenergic β2 (Homo sapiens, UniProt P07550); assay: Lead Profiling Screen, Eurofins Panlabs; format: binding; details: Adrenergic β2, hum, read-out: % inh at 10 μM
Sequence of Adrenergic β2 (P07550 whole entry): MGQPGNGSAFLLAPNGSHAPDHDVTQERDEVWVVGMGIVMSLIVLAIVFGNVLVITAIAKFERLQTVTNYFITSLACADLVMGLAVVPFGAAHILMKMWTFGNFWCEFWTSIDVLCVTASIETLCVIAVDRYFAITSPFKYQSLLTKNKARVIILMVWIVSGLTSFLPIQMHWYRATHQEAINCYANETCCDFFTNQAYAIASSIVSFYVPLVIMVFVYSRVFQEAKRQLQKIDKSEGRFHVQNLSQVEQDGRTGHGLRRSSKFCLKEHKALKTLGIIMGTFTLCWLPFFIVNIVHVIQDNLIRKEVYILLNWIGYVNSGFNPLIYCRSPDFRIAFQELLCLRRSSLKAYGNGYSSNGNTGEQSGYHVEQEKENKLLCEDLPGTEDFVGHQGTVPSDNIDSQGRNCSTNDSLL
From the text: as §4, §5

Estrogen Erα = Estrogen Erα (Homo sapiens, UniProt P03372); assay: Lead Profiling Screen, Eurofins Panlabs; format: binding; details: hum, read-out: % inh at 10 μM
Sequence of Estrogen Erα (P03372 whole entry): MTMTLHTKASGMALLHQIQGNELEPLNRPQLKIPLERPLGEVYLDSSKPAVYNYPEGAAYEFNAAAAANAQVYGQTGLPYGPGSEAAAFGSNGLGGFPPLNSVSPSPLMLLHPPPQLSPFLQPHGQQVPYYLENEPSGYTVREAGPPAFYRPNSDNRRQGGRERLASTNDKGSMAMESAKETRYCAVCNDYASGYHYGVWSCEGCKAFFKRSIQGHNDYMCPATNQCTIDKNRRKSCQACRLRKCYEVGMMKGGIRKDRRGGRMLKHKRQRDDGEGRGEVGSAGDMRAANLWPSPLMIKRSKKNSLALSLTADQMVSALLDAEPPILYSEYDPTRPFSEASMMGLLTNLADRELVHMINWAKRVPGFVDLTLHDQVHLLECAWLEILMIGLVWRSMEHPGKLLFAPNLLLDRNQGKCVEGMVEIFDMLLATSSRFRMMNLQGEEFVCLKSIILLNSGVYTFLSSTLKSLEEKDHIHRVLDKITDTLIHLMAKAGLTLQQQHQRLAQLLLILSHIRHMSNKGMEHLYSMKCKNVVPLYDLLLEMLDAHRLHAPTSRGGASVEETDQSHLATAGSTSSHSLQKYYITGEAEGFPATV
From the text: as §4, §5

Adenosine A1 = Adenosine A1 (Homo sapiens, UniProt P30542); assay: Lead Profiling Screen, Eurofins Panlabs; format: binding; details: Adenosine A1, hum, read-out: % inh at 10 μM
Sequence of Adenosine A1 (P30542 whole entry): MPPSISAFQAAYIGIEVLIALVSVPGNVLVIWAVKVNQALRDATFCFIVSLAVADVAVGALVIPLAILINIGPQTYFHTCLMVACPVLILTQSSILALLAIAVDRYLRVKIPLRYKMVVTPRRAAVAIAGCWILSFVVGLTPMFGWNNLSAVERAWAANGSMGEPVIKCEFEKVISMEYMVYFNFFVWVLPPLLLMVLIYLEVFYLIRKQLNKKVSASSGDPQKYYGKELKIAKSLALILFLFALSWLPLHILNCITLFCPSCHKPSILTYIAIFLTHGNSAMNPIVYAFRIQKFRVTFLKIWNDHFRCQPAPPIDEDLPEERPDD
From the text: as §4, §5

Cannabinoid CB1 = Cannabinoid CB1 (Homo sapiens, UniProt P21554); assay: Lead Profiling Screen, Eurofins Panlabs; format: binding; details: Cannabinoid CB1, hum, read-out: % inh at 10 μM
From the text: as §4, §5

Adrenergic α1B = Adrenergic α1B (Homo sapiens, UniProt P35368); assay: Lead Profiling Screen, Eurofins Panlabs; format: binding; details: hum, read-out: % inh at 10 μM
Sequence of Adrenergic α1B (P35368 whole entry): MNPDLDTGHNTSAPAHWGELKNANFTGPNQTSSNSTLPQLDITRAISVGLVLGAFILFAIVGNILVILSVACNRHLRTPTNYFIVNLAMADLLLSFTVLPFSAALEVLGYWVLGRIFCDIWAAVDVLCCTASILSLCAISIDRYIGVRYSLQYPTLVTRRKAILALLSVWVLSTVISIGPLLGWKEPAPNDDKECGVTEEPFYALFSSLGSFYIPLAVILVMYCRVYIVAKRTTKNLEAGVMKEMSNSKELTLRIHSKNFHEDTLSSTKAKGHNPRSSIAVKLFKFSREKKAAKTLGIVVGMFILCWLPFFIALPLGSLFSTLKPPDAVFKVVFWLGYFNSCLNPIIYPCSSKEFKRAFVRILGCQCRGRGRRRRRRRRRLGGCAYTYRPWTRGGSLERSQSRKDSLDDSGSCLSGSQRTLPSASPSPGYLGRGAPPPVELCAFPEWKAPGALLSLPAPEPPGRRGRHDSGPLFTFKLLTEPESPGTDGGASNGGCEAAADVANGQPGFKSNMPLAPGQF
From the text: as §4, §5

Endothelin ETA = Endothelin ETA (Homo sapiens, UniProt P25101); assay: Lead Profiling Screen, Eurofins Panlabs; format: binding; details: hum, read-out: % inh at 10 μM
From the text: as §4, §5

human mGlu8 = molecular target: T3, human mGlu8 (Homo sapiens, UniProt O00222); assay: mGlu selectivity, calcium mobilization assay; format: cell-based
T3 construct: expressed in transfected cells
T3 sequence (O00222 34-908): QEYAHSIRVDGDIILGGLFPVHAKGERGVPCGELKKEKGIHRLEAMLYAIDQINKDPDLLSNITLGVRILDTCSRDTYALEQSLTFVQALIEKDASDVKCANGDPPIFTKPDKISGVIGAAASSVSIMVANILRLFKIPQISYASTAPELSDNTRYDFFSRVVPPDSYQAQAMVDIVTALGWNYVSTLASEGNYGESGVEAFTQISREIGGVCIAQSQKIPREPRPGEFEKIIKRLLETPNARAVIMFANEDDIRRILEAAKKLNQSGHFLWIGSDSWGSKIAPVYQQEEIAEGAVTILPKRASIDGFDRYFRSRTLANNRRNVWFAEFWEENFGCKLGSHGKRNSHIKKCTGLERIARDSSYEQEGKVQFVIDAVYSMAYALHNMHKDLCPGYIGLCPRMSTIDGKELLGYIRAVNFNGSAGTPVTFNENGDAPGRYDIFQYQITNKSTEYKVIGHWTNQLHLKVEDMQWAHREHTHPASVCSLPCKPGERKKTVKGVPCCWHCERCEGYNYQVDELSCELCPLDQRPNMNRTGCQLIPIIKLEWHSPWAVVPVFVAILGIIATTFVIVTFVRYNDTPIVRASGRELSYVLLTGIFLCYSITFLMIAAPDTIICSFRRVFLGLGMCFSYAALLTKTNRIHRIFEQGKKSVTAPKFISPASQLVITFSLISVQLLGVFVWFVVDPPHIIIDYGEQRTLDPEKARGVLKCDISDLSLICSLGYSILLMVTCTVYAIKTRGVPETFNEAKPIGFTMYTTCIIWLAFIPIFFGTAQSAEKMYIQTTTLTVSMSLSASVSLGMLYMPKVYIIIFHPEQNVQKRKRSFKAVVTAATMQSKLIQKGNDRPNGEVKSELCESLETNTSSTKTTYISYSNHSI
Method: as §1

human mGlu7 = molecular target: T4, human mGlu7 (Homo sapiens, UniProt Q14831); assay: mGlu selectivity, calcium mobilization assay; format: cell-based
T4 construct: expressed in transfected cells
Method: as §1

T1 sequence (Q14832 23-879): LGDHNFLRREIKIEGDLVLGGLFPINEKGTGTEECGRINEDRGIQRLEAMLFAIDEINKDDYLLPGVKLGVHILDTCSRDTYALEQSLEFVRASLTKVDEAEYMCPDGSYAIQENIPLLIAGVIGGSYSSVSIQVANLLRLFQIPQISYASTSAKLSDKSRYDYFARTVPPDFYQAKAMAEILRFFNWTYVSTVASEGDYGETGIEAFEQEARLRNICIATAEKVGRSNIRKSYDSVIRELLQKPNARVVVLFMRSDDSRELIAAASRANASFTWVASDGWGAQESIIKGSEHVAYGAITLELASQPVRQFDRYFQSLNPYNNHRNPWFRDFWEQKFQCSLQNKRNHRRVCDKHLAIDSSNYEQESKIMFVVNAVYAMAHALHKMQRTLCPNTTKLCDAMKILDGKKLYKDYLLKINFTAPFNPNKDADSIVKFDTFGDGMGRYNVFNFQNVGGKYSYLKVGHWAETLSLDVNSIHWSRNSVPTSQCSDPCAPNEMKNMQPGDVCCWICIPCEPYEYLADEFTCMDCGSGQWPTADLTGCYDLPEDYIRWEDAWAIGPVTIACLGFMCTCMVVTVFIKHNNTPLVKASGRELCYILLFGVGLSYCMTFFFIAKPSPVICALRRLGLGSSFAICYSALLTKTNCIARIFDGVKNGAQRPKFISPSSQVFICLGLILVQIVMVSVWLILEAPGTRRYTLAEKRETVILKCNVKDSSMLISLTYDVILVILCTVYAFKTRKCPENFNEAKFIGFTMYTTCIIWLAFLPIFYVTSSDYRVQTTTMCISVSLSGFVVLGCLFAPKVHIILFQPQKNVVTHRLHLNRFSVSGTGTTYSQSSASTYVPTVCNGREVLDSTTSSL

Cc1cc(Oc2cnn(C)c2)cc(C(=O)Nc2ccc(F)cn2)n1 [22iA]
%GluMin, human mGlu3 (human mGlu3): [58] % | IC50 (human mGlu3): > 10 µM | IC50, human mGlu2 (human mGlu2): inactive | % inh at 10 μM (Sodium Channel, Site 2): 25% | turnover in hepatocytes [1]: high turnover | inhibition at 10 µM (Adenosine A2A): 9% | inhibition at 10 µM (Adrenergic β2): -5% | inhibition at 10 µM (Estrogen Erα): 4% | inhibition at 10 µM (Adenosine A1): 20% | inhibition at 10 µM (Cannabinoid CB1): 15% | inhibition at 10 µM (Adrenergic α1B): 3% | inhibition at 10 µM (Endothelin ETA): -2% | IC50, human mGlu8 (human mGlu8): inactive | IC50, human mGlu7 (human mGlu7): inactive
